From US7211576B2, “Diaminothiazoles” (Hoffmann-La Roche Inc., priority 2004, dated 2007) come the findings set out here.

One assay concerns the target human cyclin B-CDK1 (Homo sapiens, UniProt P06493). Briefly: FlashPlate kinase assay, cyclin B-CDK1. It is filed as biochemical. As to conditions: Rb protein substrate, 1 μM ATP, 33P-ATP, 30 minutes room temperature.
The target in a further assay is human cyclin E-CDK2 (Homo sapiens, UniProt P24941). Briefly: FlashPlate kinase assay, cyclin E-CDK2. Type of assay: biochemical. As to conditions: Rb protein substrate, 1 μM ATP, 33P-ATP, 30 minutes room temperature.
In another assay the target is human cyclin D1-CDK4 (Homo sapiens, UniProt P11802). Briefly: FlashPlate kinase assay, cyclin D1-CDK4. It is filed as biochemical. As to conditions: Rb protein substrate, 1 μM ATP, 33P-ATP, 30 minutes room temperature; read-out: CDK4 IC50.
Assay [1] relates to HCT116, a colorectal carcinoma cell line. Briefly: Tetrazolium dye (MTT) proliferation assay. Type of assay: cell-based. As to conditions: Homo sapiens, HCT-116; HCT116 cells, inhibition of cell proliferation. As for the experimental part:
Proliferation was evaluated by the tetrazolium dye assay according to the procedure of Denizot and Lang (Denizot, F. and Lang, R. J Immunol Methods 1986, 89, 271–277). The cell line used was HCT116, a colorectal carcinoma cell line obtained from the American Type Cell Culture Collection (ATCC; Rockville, Md.). The cells were grown in McCoy's 5A medium supplemented with 10% FCS and L-glutamine.
Cells were plated at the appropriate seeding density to give logarithmic growth over the course of the assay in a 96-well tissue culture plate. Plates were incubated overnight at 37° C. in a humidified incubator with 5% CO2. The next day, test compounds were serially diluted to four times the final concentration in the appropriate medium containing 1.2% DMSO. One-fourth final volume of each dilution was added in duplicate to the plates containing cells. The same volume of 1.2% DMSO in medium was added to a row of “control wells” such that the final concentration of DMSO in each well was 0.3%. Wells to which no cells were added served as the “blank.” Wells to which no inhibitor was added served as “no inhibitor control.” The plates were) returned to the incubator, and at set time points (determined by their growth curves) plates were analyzed as described below.
3-(4,5-dimethylthiazole-2-yl)-2,5-diphenyl-2H-tetrazolium bromide (thiazolyl blue; MTT; Sigma) was added to each well to yield a final concentration of 1 mg/ml. Plates were returned to the incubator for 2.5–3 hours at 37° C. The MTT-containing medium was removed and the resulting formazan metabolite was solubilized in 100% ethanol with shaking for 15 minutes at room temperature. Absorbance readings were taken in a microtiter plate reader (Dynatech and Molecular Devices plate readers were used interchangeably) at a wavelength of 570 nm with a 650 nm reference. Percent inhibition (% INH) is calculated by subtracting the absorbance of the blank well from all wells, then subtracting the ratio of the average absorbance of each test duplicate (SAVE) by the average of the controls (CAVE) from 1.00. The final number is then multiplied by 100 (% INH=(1.00−SAVE/CAVE)×100). The concentration at which 50% inhibition of cell proliferation is obtained (the IC50) is determined from the linear regression of a plot of the logarithm of the concentration versus percent inhibition.

The IC50 is the point on the concentration scale where inhibition reaches its midpoint.

human cyclin B-CDK1, sequence (P06493 whole entry): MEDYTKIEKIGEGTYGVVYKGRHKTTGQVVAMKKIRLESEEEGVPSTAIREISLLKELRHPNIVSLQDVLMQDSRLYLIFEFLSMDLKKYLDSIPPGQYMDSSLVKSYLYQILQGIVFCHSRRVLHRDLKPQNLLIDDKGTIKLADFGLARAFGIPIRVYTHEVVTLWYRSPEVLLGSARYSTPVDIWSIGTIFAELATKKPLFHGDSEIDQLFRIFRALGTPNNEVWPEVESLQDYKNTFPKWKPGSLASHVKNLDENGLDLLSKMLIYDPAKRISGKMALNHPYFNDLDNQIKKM
human cyclin B-CDK1, sequence (P14635 whole entry partner): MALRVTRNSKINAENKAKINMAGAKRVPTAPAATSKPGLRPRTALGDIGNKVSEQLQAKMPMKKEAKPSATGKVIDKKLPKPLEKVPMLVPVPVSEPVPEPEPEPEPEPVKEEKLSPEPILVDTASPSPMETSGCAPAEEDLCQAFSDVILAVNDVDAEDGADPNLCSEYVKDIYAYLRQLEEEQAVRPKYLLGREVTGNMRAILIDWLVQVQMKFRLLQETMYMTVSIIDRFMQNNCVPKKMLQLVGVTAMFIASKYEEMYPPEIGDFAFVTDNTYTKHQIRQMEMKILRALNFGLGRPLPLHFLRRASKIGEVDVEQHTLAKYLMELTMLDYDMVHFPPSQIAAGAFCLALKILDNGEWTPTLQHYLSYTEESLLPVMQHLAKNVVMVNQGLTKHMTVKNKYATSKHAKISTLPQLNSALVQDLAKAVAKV
human cyclin D1-CDK4, sequence (P11802 whole entry): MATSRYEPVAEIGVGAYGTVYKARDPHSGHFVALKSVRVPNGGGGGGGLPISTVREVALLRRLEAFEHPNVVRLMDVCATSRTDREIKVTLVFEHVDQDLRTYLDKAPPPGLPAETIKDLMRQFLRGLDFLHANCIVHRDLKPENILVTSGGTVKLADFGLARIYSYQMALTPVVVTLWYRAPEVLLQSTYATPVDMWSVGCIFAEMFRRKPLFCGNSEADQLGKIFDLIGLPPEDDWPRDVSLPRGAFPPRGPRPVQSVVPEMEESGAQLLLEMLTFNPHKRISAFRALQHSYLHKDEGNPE
human cyclin D1-CDK4, sequence (P24385 whole entry partner): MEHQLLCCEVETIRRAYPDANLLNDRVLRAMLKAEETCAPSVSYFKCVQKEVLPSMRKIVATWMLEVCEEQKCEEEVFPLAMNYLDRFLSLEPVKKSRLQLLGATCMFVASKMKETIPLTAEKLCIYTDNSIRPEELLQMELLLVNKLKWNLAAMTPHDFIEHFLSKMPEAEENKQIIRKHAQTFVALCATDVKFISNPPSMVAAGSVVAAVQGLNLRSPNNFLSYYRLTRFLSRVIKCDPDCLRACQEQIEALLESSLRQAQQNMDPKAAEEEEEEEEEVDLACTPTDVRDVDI

As to `Nc1nc(Nc2ccc(N3CCC(N4CCCC4)CC3)cc2)sc1C(=O)c1ccc2c(c1)OCCO2` [Example 26, {4-Amino-2-[4-(4-pyrrolidin-1-yl-piperidin-1-yl)-phenylamino]-thiazol-5-yl}-(2,3-dihydro-benzo[1,4]dioxin-6-yl)-methanone], the IC50 against human cyclin B-CDK1 was found to be 1060 nM; on human cyclin E-CDK2, 4250 nM; at human cyclin D1-CDK4, 5 nM; in assay [1], 2800 nM.

For `CCNC1CCN(c2ccc(Nc3nc(N)c(C(=O)c4cccc(OC)c4)s3)cc2)CC1` [Example 135, {4-Amino-2-[4-(4-ethylamino-piperidin-1-yl)-phenylamino]-thiazol-5-yl}-(3-methoxy-phenyl)-methanone], the IC50 against human cyclin B-CDK1 was found to be 1150 nM; against human cyclin E-CDK2, 6100 nM; on human cyclin D1-CDK4, 28 nM; in assay [1], 3370 nM.

In the case of `Nc1nc(Nc2ccc(N3CCC(N4CCCC(O)C4)CC3)cc2)sc1C(=O)c1cccc(O)c1` (centres unmarked) [Example 81, {4-Amino-2-[4-(3-hydroxy-[1,4′]bipiperidinyl-1′-yl)-phenylamino]-thiazol-5-yl}-(3-hydroxy-phenyl)-methanone], the 50% inhibitory concentration (IC50) amounted to 1610 nM against human cyclin B-CDK1, 3450 nM at human cyclin E-CDK2, 19 nM at human cyclin D1-CDK4 and 6020 nM in assay [1].

On to `COc1ccc(C(=O)c2sc(Nc3ccc(N4CCC(N5CCCC5)CC4)cc3)nc2N)cc1F` [Example 23], for which the half-maximal inhibitory concentration (IC50) against human cyclin B-CDK1 stood at 1280 nM; at human cyclin E-CDK2 it was 2890 nM; on human cyclin D1-CDK4, 12 nM; in assay [1], 1750 nM.

As to `COc1ccc(C(=O)c2sc(Nc3ccc(N4CCC(N5CCCCC5)CC4)cc3)nc2N)cc1F` [Example 31, [4-Amino-2-(4-[1,4′]bipiperidinyl-1′-yl-phenylamino)-thiazol-5-yl]-(3-fluoro-4-methoxy-phenyl)-methanone], the IC50 against human cyclin B-CDK1 stood at 1720 nM; against human cyclin E-CDK2, 4160 nM; at human cyclin D1-CDK4 it was 28 nM; in assay [1], 3290 nM.

Turning to `Nc1nc(Nc2ccc(N3CCC(N4CCCC(O)C4)CC3)cc2)sc1C(=O)c1ccc2c(c1)OCO2` (centres unmarked) [Example 37, {4-Amino-2-[4-(3-hydroxy-[1,4′]bipiperidinyl-1′-yl)-phenylamino]-thiazol-5-yl}-benzo[1,3]dioxol-5-yl-methanone], the IC50 on human cyclin B-CDK1 was 1630 nM; on human cyclin E-CDK2, 520 nM; at human cyclin D1-CDK4, 3520 nM; in assay [1] it was 100 nM.

As to `N#Cc1cccc(C(=O)c2sc(Nc3ccc(N4CCC(N5CCCC5)CC4)cc3)nc2N)c1` [Example 72, 3-{4-Amino-2-[4-(4-pyrrolidin-1-yl-piperidin-1-yl)-phenylamino]-thiazole-5-carbonyl}-benzonitrile], the IC50 against human cyclin B-CDK1 amounted to 702 nM; on human cyclin E-CDK2, 2050 nM; at human cyclin D1-CDK4, 17 nM; in assay [1] it was 2500 nM.

As for `Cc1ccc(C(=O)c2sc(Nc3ccc(N4CCC(N5CCCC5)CC4)cc3)nc2N)cc1F` [Example 121, {4-Amino-2-[4-(4-pyrrolidin-1-yl-piperidin-1-yl)-phenylamino]-thiazol-5-yl}-(3-fluoro-4-methyl-phenyl)-methanone], the 50% inhibitory concentration (IC50) against human cyclin B-CDK1 was 700 nM; against human cyclin E-CDK2 it was 1940 nM; on human cyclin D1-CDK4 it was 11 nM; in assay [1], 2160 nM.

In the case of `CCNC1CCN(c2ccc(Nc3nc(N)c(C(=O)c4cccc(F)c4)s3)cc2)C1` (centres unmarked) [Example 132, {4-Amino-2-[4-(3-ethylamino-pyrrolidin-1-yl)-phenylamino]-thiazol-5-yl}-(3-fluoro-phenyl)-methanone], the concentration for half-maximal inhibition (IC50) against human cyclin B-CDK1 amounted to 253 nM; against human cyclin E-CDK2, 701 nM; at human cyclin D1-CDK4, 29 nM; in assay [1], 568 nM.

Consider `CCc1cccc(C(=O)c2sc(Nc3ccc(N4CCC(N5CCCC5)CC4)cc3)nc2N)c1` [Example 114, {4-Amino-2-[4-(4-pyrrolidin-1-yl-piperidin-1-yl)-phenylamino]-thiazol-5-yl}-(3-ethyl-phenyl)-methanone], for which the IC50 at human cyclin B-CDK1 came out at 2710 nM; on human cyclin E-CDK2, 945 nM; on human cyclin D1-CDK4, 12 nM; in assay [1], 1370 nM.

Regarding `Nc1nc(Nc2ccc(N3CCC(N4CCCC(O)C4)CC3)cc2)sc1C(=O)c1cccc([N+](=O)[O-])c1` (centres unmarked) [Example 91, {4-Amino-2-[4-(3-hydroxy-[1,4′]bipiperidinyl-1′-yl)-phenylamino]-thiazol-5-yl}-(3-nitro-phenyl)-methanone], the IC50 against human cyclin B-CDK1 came out at 710 nM; at human cyclin E-CDK2, 1820 nM; on human cyclin D1-CDK4 it was 9 nM; in assay [1] it was 1640 nM.

Regarding `CCc1cccc(C(=O)c2sc(Nc3ccc(N4CCC(N5CCCCC5)CC4)cc3)nc2N)c1` [Example 117, [4-Amino-2-(4-[1,4′]bipiperidinyl-1′-yl-phenylamino)-thiazol-5-yl]-(3-ethyl-phenyl)-methanone], the IC50 against human cyclin B-CDK1 came out at 3220 nM; against human cyclin E-CDK2, 989 nM; on human cyclin D1-CDK4, 9 nM; in assay [1], 1310 nM.

In the case of `COc1ccc(C(=O)c2sc(Nc3ccc(N4CCC(N5CCCCC5)CC4)cc3)nc2N)cc1[N+](=O)[O-]` [Example 108, [4-Amino-2-(4-[1,4′]bipiperidinyl-1′-yl-phenylamino)-thiazol-5-yl]-(4-methoxy-3-nitro-phenyl)-methanone], the 50% inhibitory concentration (IC50) against human cyclin B-CDK1 worked out at 1290 nM; on human cyclin E-CDK2, 2610 nM; at human cyclin D1-CDK4, 34 nM; in assay [1] it was 996 nM.

For the molecule `Nc1nc(Nc2ccc(N3CCC(N4CCCC4)CC3)cc2)sc1C(=O)c1cccc([N+](=O)[O-])c1` [Example 90, {4-Amino-2-[4-(4-pyrrolidin-1-yl-piperidin-1-yl)-phenylamino]-thiazol-5-yl}-(3-nitro-phenyl)-methanone], the IC50 against human cyclin B-CDK1 was determined as 580 nM; on human cyclin E-CDK2 it was 1670 nM; on human cyclin D1-CDK4 it was 7 nM; in assay [1] it was 2820 nM.

Turning to `Nc1nc(Nc2ccc(N3CCC(N4CCCC(O)C4)CC3)cc2)sc1C(=O)c1cccc(F)c1` (centres unmarked) [Example 35, {4-Amino-2-[4-(3-hydroxy-[1,4′]bipiperidinyl-1′-yl)-phenylamino]-thiazol-5-yl}-(3-fluoro-phenyl)-methanone], the half-inhibitory concentration (IC50) on human cyclin B-CDK1 stood at 740 nM; on human cyclin E-CDK2 it was 120 nM; at human cyclin D1-CDK4 it was 1090 nM; in assay [1], 18 nM.

As for `CCc1cccc(C(=O)c2sc(Nc3ccc(N4CCC(N(C)C)CC4)cc3)nc2N)c1` [Example 115, {4-Amino-2-[4-(4-dimethylamino-piperidin-1-yl)-phenylamino]-thiazol-5-yl}-(3-ethyl-phenyl)-methanone], the IC50 against human cyclin B-CDK1 came to 2800 nM; on human cyclin E-CDK2, 1040 nM; on human cyclin D1-CDK4, 10 nM; in assay [1], 1240 nM.

Take `CN(C)C1CCN(c2ccc(Nc3nc(N)c(C(=O)c4cccc(F)c4)s3)cc2)CC1` [Example 41, {4-Amino-2-[4-(4-dimethylamino-piperidin-1-yl)-phenylamino]-thiazol-5-yl}-(3-fluoro-phenyl)-methanone]: the IC50 against human cyclin B-CDK1 was determined as 268 nM; at human cyclin E-CDK2 it was 888 nM; at human cyclin D1-CDK4, 2 nM; in assay [1], 1410 nM.

Regarding `CCOc1cccc(C(=O)c2sc(Nc3ccc(N4CCC(N5CCCC5)CC4)cc3)nc2N)c1` [Example 118, {4-Amino-2-[4-(4-pyrrolidin-1-yl-piperidin-1-yl)-phenylamino]-thiazol-5-yl}-(3-ethoxy-phenyl)-methanone], the half-maximal inhibitory concentration (IC50) at human cyclin B-CDK1 was 1530 nM; against human cyclin E-CDK2 it was 3240 nM; at human cyclin D1-CDK4, 31 nM; in assay [1], 4150 nM.

For `Nc1nc(Nc2ccc(N3CCC(N4CCCC4)CC3)cc2)sc1C(=O)c1cccc(F)c1` [Example 24, {4-Amino-2-[4-(4-pyrrolidin-1-yl-piperidin-1-yl)-phenylamino]-thiazol-5-yl}-(3-fluoro-phenyl)-methanone], the IC50 was found to be 270 nM on human cyclin B-CDK1, 860 nM on human cyclin E-CDK2, 32 nM at human cyclin D1-CDK4 and 1220 nM in assay [1].

Regarding `CCc1cc(C(=O)c2sc(Nc3ccc(N4CCC(N5CCCC5)CC4)cc3)nc2N)ccc1F` [Example 122, {4-Amino-2-[4-(4-pyrrolidin-1-yl-piperidin-1-yl)-phenylamino]-thiazol-5-yl}-(3-ethyl-4-fluoro-phenyl)-methanone], the concentration for half-maximal inhibition (IC50) at human cyclin B-CDK1 was 5190 nM; against human cyclin E-CDK2 it was 5310 nM; on human cyclin D1-CDK4 it was 20 nM; in assay [1] it was 4220 nM.
